Values belong to the compound of their own block, whether it stands above or below them.
How the values were obtained:
[1] = system: lysosomal arginine transport; assay: Efflux of arginine from isolated lysosomes of Ly6G-sorted splenocytes; format: biochemical, mice; settings: lysosomes of wt cells treated with sphingomyelin
Description: FIG. 7B is a graph showing the results of isolated lysosomes from Ly6G-sorted splenocytes obtained from mice with or without PDAC being loaded with [^14C]arginine and the efflux of [3H]arginine being determined. Aliquots of the lysosomes were treated with sphingomyelin.
(§1) The lysosomal arginine transporter SLC66A1 contains a VMLTLYFYY motif. A study was conducted to investigate whether SLC66A binds to sphingomyelin. […] Additionally, efflux of arginine was markedly higher in lysosomes of splenic myeloid cells isolated from wt tumors than in cells from control mice and absent in ASM-tr cells (FIG. 7B).
FIG. 7B is a graph showing isolated lysosomes from Ly6G-sorted splenocytes obtained from mice with or without PDAC were loaded with [^14C]arginine and the efflux of [3H]arginine was determined. Aliquots of the lysosomes were treated with sphingomyelin. Mean±SD; n=6-8; ***p<0.001 ANOVA.

SLC66A1 = biological target: T1, SLC66A1 (Mus musculus, UniProt Q8C4N4); assay: Binding of [14C]sphingomyelin to immunoprecipitated SLC66A1
T1 construct: SLC66A1 was immunoprecipitated from 40×10^6 splenocytes, after lysis in RIPA-buffer+aprotinin/leupeptin; endogenous in cells; host or cells: splenocytes (immunoprecipitate on protein A/G agarose)
T1 sequence (Q8C4N4 1-293): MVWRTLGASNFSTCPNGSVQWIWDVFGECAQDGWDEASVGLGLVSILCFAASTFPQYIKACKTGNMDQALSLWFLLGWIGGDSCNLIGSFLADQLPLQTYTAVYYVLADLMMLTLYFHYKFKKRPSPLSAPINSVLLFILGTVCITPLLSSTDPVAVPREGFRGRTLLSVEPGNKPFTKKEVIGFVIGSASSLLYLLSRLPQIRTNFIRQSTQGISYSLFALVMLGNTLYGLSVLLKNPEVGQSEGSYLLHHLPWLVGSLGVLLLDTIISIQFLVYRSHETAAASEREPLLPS
Description: FIG. 7A is a graph showing the binding of [^14C]sphingomyelin (SM), [^14C]ceramide (Cer), and [^14C]sphingosine (SPH) in the absence or presence of the VMLTLYFYY peptide.
as §1
FIG. 7A is a graph showing SLC66A1 was immunoprecipitated from 40×10^6 splenocytes, after lysis in RIPA-buffer+aprotinin/leupeptin. Immunocomplexes were immobilized on protein A/G agarose, washed 3-times in RIPA buffer and twice in PBS+0.1% Triton X100, resuspended in the same buffer and binding of [^14C]sphingomyelin (SM), [^14C]ceramide (Cer), or [^14C]sphingosine (SPH) was measured in the absence or presence of the VMLTLYFYY peptide.

[2] = system: Pan02 pancreas cancer cells; assay: Orthotopic pancreatic cancer murine model (Pan02), tumor size 15 days after injection; format: in vivo; settings: wildtype mice, amitriptyline 10 mg/kg i.p. every other day, 15 days after tumor initiation, vs vehicle
Description: The wildtype mice were randomly divided into 2 groups treated with antidepressant (amitriptyline 10 mg/kg, i.p. injected every 2nd day) or vehicle, i.e. 0.9% NaCl. The size of the pancreas cancer was determined 15 days after tumor initiation.
FIG. 4 is a graph showing a growth of PDAC in murine models of orthotopic pancreatic ductal adenocarcinoma. Wildtype mice were injected orthotopically into the pancreas with […] Pan02 pancreas cancer cells and either left untreated or treated with amitriptyline at 10 mg/kg every other day via IP injection starting at day 4 after tumor injection. In addition, we injected acid sphingomyelinase-deficient littermates with Pan02 pancreas cancer cells orthotopically into the pancreas. Tumor size was determined 15 days after injection. Shown are the mean±SD of the tumor size from each n=4-5 mice per group; *p<0.05, ANOVA with Tukey post hoc test.
All animal experiments were approved by the University of Cincinnati Ethic Committee and the Institutional Animal Care and Use Committee. Eight-week-old, wild type male, C57BL/6J mice were purchased from Jackson Labs (000664, Jackson Labs, USA). Acid sphingomyelinase-deficient mice (Smpd1−/−) were bred and genotyped at the animal facility of the University of Cincinnati. […] The size of the pancreas cancer was determined in all groups 15 days after tumor initiation.

KPC-PDAC cells = assay: Tumor development and survival of wildtype and ASM-transgenic mice after i.p. injection of KPC-PDAC cells, gemcitabine treatment (Example 4, FIG. 5); format: in vivo; settings: for response of tumors to treatment: i.p. KPC-PDAC cells
Description: FIG. 5 is a graph showing the survival of wildtype and ASM-transgenic mice after i.p. injection of 25,000 KPC cells. Treatment of ASM-transgenic (tr) mice with gemcitabine rescued 100% of the mice from tumor growth. n=12 each group.
An experiment was conducted to determine if acid sphingomyelinase overexpression prevents tumor growth. Based on the clinical data, the effects of ASM overexpression and tumor growth were evaluated.

ASM = biological target: T2, ASM (Mus musculus, UniProt Q04519); assay: Incubation of ex vivo splenocytes, Ly6G-sorted myeloid cells or J774 macrophages with polyamines: ASM activity and sphingomyelin; format: cell-based, mice; settings: agmatine 5 μM, 8 hr
T2 construct: endogenous in cells; host or cells: ex vivo mouse splenocytes, Ly6G-sorted myeloid cells, J774 macrophages
T2 sequence (Q04519 45-627): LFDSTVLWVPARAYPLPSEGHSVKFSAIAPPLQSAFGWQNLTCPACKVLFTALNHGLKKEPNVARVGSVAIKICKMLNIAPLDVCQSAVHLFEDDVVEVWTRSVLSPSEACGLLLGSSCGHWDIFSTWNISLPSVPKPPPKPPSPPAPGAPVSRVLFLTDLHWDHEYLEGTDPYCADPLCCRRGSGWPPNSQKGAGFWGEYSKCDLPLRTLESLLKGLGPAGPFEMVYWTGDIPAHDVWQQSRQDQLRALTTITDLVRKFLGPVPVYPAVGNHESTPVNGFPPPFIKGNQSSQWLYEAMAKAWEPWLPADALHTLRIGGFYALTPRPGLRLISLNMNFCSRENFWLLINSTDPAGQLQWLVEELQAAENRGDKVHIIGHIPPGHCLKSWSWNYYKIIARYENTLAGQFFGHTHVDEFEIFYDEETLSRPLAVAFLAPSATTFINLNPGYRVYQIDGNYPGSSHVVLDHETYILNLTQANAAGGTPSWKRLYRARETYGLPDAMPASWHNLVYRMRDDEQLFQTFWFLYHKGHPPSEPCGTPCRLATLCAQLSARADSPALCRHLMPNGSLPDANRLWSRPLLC
Description: FIG. 9A is a graph showing the concentration of polyamines in the blood plasma of wt or ASM-tr mice determined by ELISA. FIG. 9B is a graph showing the activity of ASM for splenocytes that were isolated from wt or ASM-tr mice and stimulated for 8 hr with 5 μM agmatine (Agm), 100 μM spermine (Sp), or 100 μM spermidine (Spd). FIG. 9C is a graph showing the concentrations of sphingomyelin for splenocytes that were isolated from wt or ASM-tr mice and stimulated for 8 hr with 5 μM agmatine (Agm), 100 μM spermine (Sp), or 100 μM spermidine (Spd). The activity of ASM and the concentrations of sphingomyelin were determined by an enzyme assay or ELISA. Mean±SD; n=6-8; **p<0.01, ***p<0.001 ANOVA.
An increase of Arg-1 and ADC expression may also increase polyamine concentrations. […]
FIG. 10 is a graph showing ASM activity (A) and levels of sphingomyelin (B), Arg-1 (C), and ADC (D) were determined in macrophages (J774 cell line) or in stable ASM-transfected J774 (with an approximately 3-fold overexpression of ASM) at baseline, after treatment with agmatine (Agm, 5 μM), spermine (Sp, 100 μM), or spermidine (Spd, 100 μM), supernatant (Sup) from KPC cells, and supernatant immunodepleted (id) of polyamines. ASM activity was measured by determining the consumption of [^14C]sphingomyelin, Sphingomyelin-, Arginase-1- and ADC-levels were quantified by ELISA. […]

[3] = system: isolated immune cells from tumors in wt mice; assay: Anti-CD3-mediated IL-2 and INFγ formation in isolated immune cells from tumor wt mice; format: cell-based; settings: arginine added to isolated immune cells from tumors in wt mice
From the text: Further, it was confirmed that sphingomyelin caused upregulation of Arg-1 and ADC and the concomitant reduction of arginine concentrations results in immune inhibition. Confirmation was accomplished by the finding that anti-CD3-mediated IL-2 and INFγ-formation, as well as cytotoxicity toward KPC cells, is lower in splenocytes isolated from wt mice injected with PDAC than in splenocytes from ASM-tr mice (FIG. 8E).

binding to SLC66A1 (SLC66A1; immunoprecipitation from splenocytes, [14C]sphingomyelin): direct and specific binding
Compound: sphingomyelin
efflux of arginine from lysosomes [1]: strongly activated

binding of sphingomyelin to SLC66A1 in the presence of peptide (SLC66A1; excess synthetic peptide): almost abrogated
Compound: VMLTLYFYY [VMLTLYFYY peptide]

Compound: CN(C)CCC=C1c2ccccc2CCc2ccccc21 [amitriptyline]
tumor growth (tumor size) [2]: increased tumor growth

Compound: Nc1ccn([C@@H]2O[C@H](CO)[C@@H](O)C2(F)F)c(=O)n1 [gemcitabine]
response of tumors to treatment (KPC-PDAC cells; ASM-tr mice, low dose of gemcitabine): completely eradicate the tumors | mice rescued from tumor growth (KPC-PDAC cells; ASM-transgenic mice, 25,000 KPC cells i.p., n=12): 100% | response of tumors to treatment (KPC-PDAC cells; wt mice): resistant

Compound: N=C(N)NCCCCN [agmatine]
ASM activity (ASM): inhibited ASM activity | cellular sphingomyelin concentrations (ASM): increased cellular sphingomyelin concentrations

Compound: N=C(N)NCCC[C@H](N)C(=O)O [arginine]
CD3-mediated formation of IL-2 and INFγ [3]: restored
